# Assays:
# [1] = test system: ABC superfamily genes in HOC/ADR; test: Expression of genes encoding ABC transporters, qPCR; format: cell-based, human; settings: IC10 alone, 48 h
# Procedure: Based on the fact that compounds K3, K4, K7 sensitized drug-resistant cell lines (HOC/ADR, MCF-7/PAX) and modulated ATPase activity of one from the ABC proteins (P-gp), we verified the potential of these compounds to affect ABC superfamily gene expression. The ovarian and breast cancer cell lines (parental cells and resistant sub-line) were analysed for the expression profile of genes encoding the ABC proteins in the previous works[18]–[20]. […] After 48 h, the effect of compounds alone or in the combination with cytostatics was observed (Supplementary Tables 1, Table 2).
# To determine the impact of selected compounds on the expression of genes encoding ABC transporter, HOC/ADR and MCF-7/PAX cells were seeded for 24 h into 5 cm Petri dishes with DMEM medium at the cell density 1 × 10^5 cells/mL. Afterwards, the cells were washed 1× with PBS and new fresh DMEM supplemented with K3, K4, and K7 (in concentration corresponding to their IC10 value) alone or combined with cytostatics (Adriamycin or paclitaxel in concentration corresponding to their IC25 value) was added. In the experiment, positive and negative control was also included (positive—untreated cells, negative—cells treated only with cytostatics). After 48 h exposure, the cells were washed once with PBS and released from the surface by using the above-mentioned trypsin–EDTA procedure. The enzyme reaction was stopped by medium addition and the cells were centrifuged (3200×g; 10 min, 4 °C). The supernatants were removed and before the next centrifugation, the pellets were resuspended in 1.5 mL of cooled PBS (5400×g; 10 min, 4 °C). After the second washing step, the cells were centrifuged another time (10,000×g; 3 min, 4 °C). Subsequently, 1 mL of Trizol (Invitrogen) was added to the pellets and the compounds were stored − 80 °C.
# The RNA concentration of selenoester treated samples was determined using QuantiT RiboGreen RNA Assay Kit and Infinite M200 plate reader (Tecan, Männedor, Switzerland). The cDNA was synthesized from 0.5 µg of total RNA by RevertAid First Strand Synthesis cDNA Kit (MBI Fermentas, Vilnius, Lithuania). To determine the quality of cDNA, the ubiquitin C gene fragment was amplified. The experiment was performed in 384-well block by using ViiA7 Real-Time PCR System (Life Technologies, Camarillo, California, United States). A master mix contained 0.25 µL of 20× TaqMan Gene Expression Assay, 1 µL of 5× HotFIREPol Probe qPCR Mix Plus, 1.75 µL of RNase free water and 2 µL of 8× diluted cDNA. The final reaction volume was 5 µL. The PCR parameters were as follows: initial hold (50 °C for 2 min), denaturation (95 °C for 10 min), followed by 45 cycles (denaturation at 95 °C for 15 s, annealing at 60 °C for 1 min). After each cycle, the fluorescent signal was determined. For each compound, duplicates were analysed and those with a standard deviation higher than 0.5 Ct were re-analysed. A quantitate real-time PCR was followed by MIQE guidelines. To compare the relative transcript levels of genes, the software REST 2009 (Qiagen, Hilden, Germany) was used.
# Table 1. Effect of selenoesters on the expression of genes of the ABC superfamily in Adriamycin-resistant ovarian carcinoma cell line (HOC/ADR).
# Gene expression of ABC transporters were estimated using comercial predesigned Taqman Gene Expression Assays (Life technologies). TaqMan Gene Expression Assays are based on 5´ nuclease chemistry, and each assay contains the primer and probe set for target of interest. Taqman assays IDs and GenBank Accession numbers of reference sequencies identifying their location and amplicon lengths are included in […]. * Relative transcript levels (P-value ) in treated and non-treated cancer cell lines were compared using REST 2009 software.
# MCF-7/PAX spheroids = test: Sensitization of resistant 3D spheroids to paclitaxel; format: cell-based, human; settings: paclitaxel IC50 / paclitaxel + selenoester IC50; K3 3 µM, K4 3 µM, K7 5 µM; 72 h
# Procedure: In the previous section, the cytotoxic activity of selenoesters was determined against several 3D models of sensitive and resistant cell lines. Subsequently, the selenoesters were tested for their potential to sensitize the drug-resistant HOC/ADR and MCF-7/PAX spheroids. Mature 72 h old spheroids were incubated with the non-toxic concentration of selenoesters with Adriamycin or paclitaxel (concentration range 0.6–80 µM) for HOC/ADR or MCF-7/PAX, respectively (Table 8). After another 72 h incubation, the sensitization rate (fold change) was evaluated. […] The highest sensitization rate of ovarian spheroids (HOC/ADR) was induced by 5 µM K4, followed by 5 µM K7, and 3 µM K3.
# To determine the sensitization potential of compounds, HOC/ADR and MCF-7/PAX were seeded into the ultra-low attachment 96-well plates (Sigma-Aldrich) at a cell density 0.5 × 10^5 cells/mL. After 3 days of spheroid formation, spheroids were carefully washed once with PBS and fresh DMEM medium (99 µL) containing the appropriate concentration of compounds K3, K4, K7 was added. Using a binary serial compound dilution, the concentration range of both cytostatics was prepared in the new 96-well plates (0.06–8 mM). After 1 µL transfer of cytostatics into the corresponding cell line, the final concentration range were 0.6–80 µM. The required volume of DMSO (1% V/V) was added to the positive control. After an incubation of 72 h, 100 µL of CellTiter-Glo 3D Reagent (Promega) was added to each well. Plates with spheroids were incubated for 25 min at room temperature. Afterwards, the luminescent signal was recorded.
SMILES,ABCA1 Expression Difference [1],ABCA2 Expression Difference [1],ABCA3 Expression Difference [1],ABCA5 Expression Difference [1],ABCA7 Expression Difference [1],ABCA7 Treated vs. Untr. [1],ABCB1 Expression Difference [1],ABCB2 Expression Difference [1],ABCB2 Treated vs. Untr. [1],ABCB3 Expression Difference [1],ABCB6 Expression Difference [1],ABCB8 Expression Difference [1],ABCB9 Expression Difference [1],ABCB10 Expression Difference [1],ABCC1 Expression Difference [1],ABCC2 Expression Difference [1],ABCC5 Expression Difference [1],ABCC10 Expression Difference [1],ABCD1 Expression Difference [1],ABCD1 Treated vs. Untr. [1],also measured
CC(=O)C[Se]C(=O)c1ccc(Br)cc1 [K3],0.968,0.997,0.838,2.693,0.322,DOWN,3.825,0.315,DOWN,4.904,4.860,2.659,4.156,7.275,6.415,2.907,2.301,1.562,0.665,DOWN,ABCA3 Treated vs. Untr. [1]: DOWN; ABCD2 Expression Difference [1]: 1.845; ABCD3 Expression Difference [1]: 2.960; ABCD4 Expression Difference [1]: 2.760; ABCE1 Expression Difference [1]: 7.298; ABCF1 Expression Difference [1]: 1.638; ABCF2 Expression Difference [1]: 2.868; ABCF3 Expression Difference [1]: 2.163; ABCG1 Expression Difference [1]: 0.932; ABCG2 Expression Difference [1]: 1.869; ABCG4 Expression Difference [1]: 0.755; ABCG4 Treated vs. Untr. [1]: DOWN; MCF-7/PAX Fold change (3D) (MCF-7/PAX spheroids): (0.9 ± 0.0)×
CC(=O)C[Se]C(=O)c1ccccc1C(F)(F)F [K4],1.347,0.948,0.832,2.334,0.359,DOWN,3.696,0.435,DOWN,4.568,5.132,3.526,4.981,8.165,8.545,3.272,2.336,1.545,0.796,DOWN,ABCA3 Treated vs. Untr. [1]: DOWN; ABCB7 Expression Difference [1]: 7.250; ABCD2 Expression Difference [1]: 4.885; ABCD3 Expression Difference [1]: 3.302; ABCD4 Expression Difference [1]: 2.681; ABCE1 Expression Difference [1]: 6.945; ABCF1 Expression Difference [1]: 1.998; ABCF2 Expression Difference [1]: 3.096; ABCF3 Expression Difference [1]: 2.262; ABCG1 Expression Difference [1]: 1.213; ABCG2 Expression Difference [1]: 1.302; ABCG4 Expression Difference [1]: 0.776; ABCG4 Treated vs. Untr. [1]: DOWN; MCF-7/PAX Fold change (3D) (MCF-7/PAX spheroids): (1.0 ± 0.1)×
CC(=O)C[Se]C(=O)c1ccc(C(C)(C)C)cc1 [K7],1.104,1.775,1.018,1.970,0.341,DOWN,5.009,0.591,DOWN,3.406,4.646,3.581,4.530,7.288,7.835,3.865,3.327,1.899,0.898,DOWN,ABCB7 Expression Difference [1]: 7.145; ABCD2 Expression Difference [1]: 0.638; ABCD2 Treated vs. Untr. [1]: DOWN; ABCD3 Expression Difference [1]: 4.007; ABCD4 Expression Difference [1]: 3.541; ABCE1 Expression Difference [1]: 10.154; ABCF1 Expression Difference [1]: 2.212; ABCF2 Expression Difference [1]: 4.029; ABCF3 Expression Difference [1]: 3.001; ABCG1 Expression Difference [1]: 1.059; ABCG2 Expression Difference [1]: 1.468; ABCG4 Expression Difference [1]: 1.431; MCF-7/PAX Fold change (3D) (MCF-7/PAX spheroids): (1.1 ± 0.1)×

# Source: article PMC9023544, “Ketone-selenoesters as potential anticancer and multidrug resistance modulation agents in 2D and 3D ovarian and breast cancer in vitro models” (Scientific Reports, 2022)
